Data: patent publication US20070078096A1, “Buffered drug formulations for transdermal electrotransport delivery” (priority 1997, published 2007)
Converted amounts (≈) assume the structure as drawn. Read-outs that look alike come from different tables or passages of the source. Non-standard residues stand in square brackets, D forms with d. Residues, ends and D or L forms follow the SMILES beside them. Cit = NC(=O)NCCC[C@H](N)C(=O)O

What was measured:
[1] = Conductivity of dipeptides at their pI; type: physicochemical
Excerpt: (§1) Table 1 lists conductivities and solubilities of selected dipeptides useful in the present invention, at their pI.

[2] = Solubility of dipeptides at their pI; type: physicochemical
Excerpt: as §1

[3] = pKa, pI and charge distribution of buffers; conditions: for % salt: fraction of dipeptide carrying a net charge in aqueous solution at pH equal to pI
Excerpt: At the pI, three species coexist.
In an electric field these negative species move in the opposite direction of their positive associated counterions.
Choice of the dipeptide buffer will be on a case-by-case basis depending on the drug compound and the desired level of pH control and conductivity of the formulation.

[4] = In vivo iontophoresis, pH control of anodic and cathodic buffer gels (Example 2); design: species or system hairless guinea pigs; Ionic strength (approx.): unit not given here; conditions: for Anodic pH after 5 h electrotransport / Cathodic pH after 5 h electrotransport: 0.1 mA/cm^2; for Initial pH: prior to application; for pH control of a cathodic electrotransport formulation: for at least 5 hours; for pH control of a cathodic electrotransport formulation / pH control of an anodic electrotransport formulation: dipeptides at their pI; for pH control of an anodic electrotransport formulation: for several hours
Protocol: In vivo iontophoresis experiments were performed using custom built electrotransport systems. […] This formulation was separated from the anode electrode by a Sybron ion exchange membrane. […] The cathode-compartment comprised a skin-contacting gel containing the aqueous solution of the buffering agent at the indicated concentration and 3% HEC. This formulation was separated from the cathode electrode by a Nafion ion exchange membrane. […] The electrodes were connected to a DC power source which supplied a constant level of electric current of 0.1 mA/cm^2. Experiments were performed in vivo in hairless guinea pigs. Three animals were used for each condition studied. The electrotransport systems were applied to and removed from the flank of the animals. The two reservoirs were generally spaced about 5 cm apart. The application site was wiped with water prior to system application. pH of the gels was measured prior to application and after removal of the systems using a HORIBA compact pH […]).

[5] = anodic gel, listed as Phosphate 33 mM
[6] = anodic gel, listed as Phosphate 100 mM

## C[C@H](NC(=O)[C@@H](N)Cc1cnc[nH]1)C(=O)O [His-Ala] (H-His-Ala-OH)
[1]
  Conductivity at 10^−2 Molar: 60 μS/cm
[2]
  Solubility: 0.50 mol/L (≈ 113 mg/mL)
[3]
  pka A: 2.48
  % salt: 22%
[3]; Table 1
  pI: 6.95
[3]; Table 2
  pI: 6.95

## NCCCC[C@H](N)C(=O)N[C@@H](CCC(=O)O)C(=O)O [Lys-Glu] (H-Lys-Glu-OH)
[1]
  Conductivity at 10^−2 Molar: 8 μS/cm
[2]
  Solubility: 0.50 mol/L (≈ 138 mg/mL)
[3]; Table 1
  pI: 6.06
[3]; Table 2
  pI: 6.06
[3]
  % salt: 3%

## NCCCC[C@H](N)C(=O)N[C@@H](CC(=O)O)C(=O)O [Lys-Asp] (H-Lys-Asp-OH)
[1]
  Conductivity at 10^−2 Molar: 6 μS/cm
[2]
  Solubility: 1.00 mol/L (≈ 261 mg/mL)
[3]; Table 1
  pI: 6.08
[3]; Table 2
  pI: 6.08
[3]
  % salt: 2%

## N[C@@H](Cc1cnc[nH]1)C(=O)NCC(=O)O [His-Gly] (H-His-Gly-OH)
[1]
  Conductivity at 10^−2 Molar: 40 μS/cm
[2]
  Solubility: 1.00 mol/L (≈ 212 mg/mL)
[3]
  pka A: 2.41
  % salt: 16%
[3]; Table 1
  pI: 6.90
[3]; Table 2
  pI: 6.90

## NCCCC[C@H](NC(=O)[C@@H](N)CCC(=O)O)C(=O)O [Glu-Lys] (H-Glu-Lys-OH)
[1]
  Conductivity at 10^−2 Molar: 6 μS/cm
[2]
  Solubility: 1.00 mol/L (≈ 275 mg/mL)
[3]; Table 1
  pI: 6.00
[3]; Table 2
  pI: 6.00
[3]
  % salt: 2%

## N[C@@H](Cc1cnc[nH]1)C(=O)N[C@@H](CC(=O)O)C(=O)O [His-Asp] (H-His-Asp-OH)
[1]
  Conductivity at 10^−2 Molar: 28 μS/cm
[2]
  Solubility: 0.05 mol/L (≈ 13.5 mg/mL)
[3]; Table 1
  pI: 5.22
[3]; Table 2
  pI: 5.22
[3]
  % salt: 11%

## O=P(O)(O)O [phosphate, phosphoric acid, reference compound]
[4]; Table 3, anodic buffer gel, listed as Phosphate 10 mM
  Ionic strength (approx.): ~0.015
[4]; Table 3, anodic buffer gel, listed as Phosphate 33 mM
  Ionic strength (approx.): ~0.05
[4]; Table 3, anodic buffer gel, listed as Phosphate 100 mM
  Ionic strength (approx.): ~0.15
[4]; Table 4, cathodic buffer gel
  Ionic strength (approx.): ~0.015
[4]; [5]
  Anodic pH after 5 h electrotransport: 3.3
  Initial pH: 6.9
[4]; [6]
  Anodic pH after 5 h electrotransport: 6.5
  Initial pH: 6.8
[4]; anodic gel, listed as Phosphate 10 mM
  Initial pH: 6.9
[4]; cathodic gel
  Cathodic pH after 5 h electrotransport: 4.2
  Initial pH: 6.9
[4]
  pH control of a cathodic electrotransport formulation: lack of stability
  pH control of an anodic electrotransport formulation: lack of stability

## NC(=O)NCCC[C@H](N)C(=O)N[C@@H](Cc1c[nH]cn1)C(=O)O [Citrulline-His] (H-[Cit]-His-OH)
[3]
  pka A: 2.42
  % salt: 32%
[3]; Table 2
  pI: 7.30

## Gly-Gly-Gly-His (GGGH; printed: Gly-Gly-Gly-His)
[3]
  pI: 7.5

## CSCC[C@H](N)C(=O)N[C@@H](Cc1cnc[nH]1)C(=O)O [Met-His] (H-Met-His-OH)
[3]
  pka A: 2.42
  % salt: 30%
[3]; Table 2
  pI: 7.35

## N[C@@H](CCC(=O)O)C(=O)N[C@@H](Cc1cnc[nH]1)C(=O)O [Glu-His] (H-Glu-His-OH)
[3]
  pI: 5.2
  % salt: 5%
[3]; Table 2
  pI: 5.20
[3]; at pI
  species presenting a net charge (salt form) at the pI: about 5%

## NC[C@H](O)CC[C@H](N)C(=O)N[C@@H](Cc1c[nH]cn1)C(=O)O [Hydroxylysine-His]
[3]
  pka A: 2.42
  % salt: 13%
[3]; Table 2
  pI: 8.60

## NCCC(=O)N[C@@H](Cc1c[nH]cn1)C(=O)O [Beta-Alanylhistidine]
[3]; Table 2
  pI: 7.70
[3]
  % salt: 16%

## N[C@@H](Cc1c[nH]c2ccccc12)C(=O)N[C@@H](Cc1cnc[nH]1)C(=O)O [Trp-His] (H-Trp-His-OH)
[3]
  pka A: 2.42
  % salt: 32%
[3]; Table 2
  pI: 7.30

## NC(=O)NCCC[C@H](NC(=O)[C@@H](N)Cc1c[nH]cn1)C(=O)O [His-Citrulline] (H-His-[Cit]-OH)
[3]
  pka A: 3.05
  % salt: 22%
[3]; Table 2
  pI: 6.95

## His-Gly-Gly-Gly-Gly (HGGGG; printed: His-Gly-Gly-Gly-Gly)
[3]
  pI: 6.0

## O=S(=O)(O)CCCN1CCOCC1 [MOPS, 3-[N-morpholino]propanesulphonic acid, reference compound]
[3]
  pI: 4
[3]; at pI
  buffering capacity at its pI: does not present any buffering capacity
  conductivity of solutions at its pI: non-conductive
[3]; pH 7
  net charge at pH 7: −0.5
[4]; Table 3, anodic buffer gel
  Ionic strength (approx.): ~0.01
[4]; Table 4, cathodic buffer gel
  Ionic strength (approx.): ~0.01
[4]; anodic gel
  Anodic pH after 5 h electrotransport: 4.1
  Initial pH: 7.0
[4]; cathodic gel
  Cathodic pH after 5 h electrotransport: 5.4
  Initial pH: 7.0
[4]
  pH control of a cathodic electrotransport formulation: lack of stability
  pH control of an anodic electrotransport formulation: lack of stability

## CC[C@H](C)[C@H](N)C(=O)N[C@@H](Cc1cnc[nH]1)C(=O)O [Isoleucine-His] (H-Ile-His-OH)
[3]
  pka A: 2.42
  % salt: 25%
[3]; Table 2
  pI: 7.44

## CC(C)[C@H](N)C(=O)N[C@@H](Cc1cnc[nH]1)C(=O)O [Val-His] (H-Val-His-OH)
[1]
  Conductivity at 10^−2 Molar: 94 μS/cm
[2]
  Solubility: 0.20 mol/L (≈ 50.9 mg/mL)
[3]
  pka A: 3.09
  % salt: 34%
[3]; Table 1
  pI: 7.38
[3]; Table 2
  pI: 7.38

## NC(=O)CC[C@H](NC(=O)[C@@H](N)Cc1cnc[nH]1)C(=O)O [His-Gln] (H-His-Gln-OH)
[3]
  pka A: 2.93
  % salt: 22%
[3]; Table 2
  pI: 6.95

## C[C@@H](O)[C@H](NC(=O)[C@@H](N)Cc1cnc[nH]1)C(=O)O [His-Thr] (H-His-Thr-OH)
[3]
  pka A: 2.98
  % salt: 22%
[3]; Table 2
  pI: 6.95

## N[C@@H](Cc1ccccc1)C(=O)N[C@@H](Cc1cnc[nH]1)C(=O)O [Phe-His] (H-Phe-His-OH)
[3]
  pka A: 2.42
  % salt: 36%
[3]; Table 2
  pI: 7.20

## NC(N)=NCCC[C@H](NC(=O)[C@@H](N)CCC(=O)O)C(=O)O [Glu-Arg] (H-Glu-Arg-OH)
[3]; Table 2
  pI: 6.00
[3]
  % salt: 2%

## Gly-Gly-His
[3]
  pI: 7.5

## N[C@@H](Cc1c[nH]cn1)C(=O)N1CC(O)C[C@H]1C(=O)O (some centres unmarked) [His-Hydroxyproline]
[3]
  pka A: 2.42
  % salt: 22%
[3]; Table 2
  pI: 6.95
